Among the data in the NIST ThermoML archive (doi:10.1021/acs.jced.8b00601) are activity coefficient values, retold here.

± gives the expanded uncertainty stated by the source.

A short description of this data set: activity coefficient (dimensionless); of the first substance listed, at infinite dilution; xn = mol fraction of the nth substance listed. The conditions noted are these: 101.33 kPa, Liquid, Chromatography, x1 = 0.

For `c1ccccc1` [benzene] + O=S(=O)([N-]S(=O)(=O)C(F)(F)F)C(F)(F)F.O=S(=O)([N-]S(=O)(=O)C(F)(F)F)C(F)(F)F.O=S(=O)([N-]S(=O)(=O)C(F)(F)F)C(F)(F)F.c1ccc2cc(-n3cc[n+](Cc4cc(C[n+]5ccn(-c6ccc7ccccc7c6)c5)cc(C[n+]5ccn(-c6ccc7ccccc7c6)c5)c4)c3)ccc2c1, the activity coefficient amounted to 2.58 ± 0.3 (313 K), 1.88 ± 0.23 (323 K), 1.35 ± 0.17 (333 K) and 0.994 ± 0.12 (343 K).

In the case of `O=C1CCCCC1` [cyclohexanone] + O=S(=O)([N-]S(=O)(=O)C(F)(F)F)C(F)(F)F.O=S(=O)([N-]S(=O)(=O)C(F)(F)F)C(F)(F)F.O=S(=O)([N-]S(=O)(=O)C(F)(F)F)C(F)(F)F.c1ccc2cc(-n3cc[n+](Cc4cc(C[n+]5ccn(-c6ccc7ccccc7c6)c5)cc(C[n+]5ccn(-c6ccc7ccccc7c6)c5)c4)c3)ccc2c1, the activity coefficient is 1 ± 0.1 (313 K), 0.999 ± 0.1 (323 K), 1 ± 0.1 (333 K) and 1 ± 0.1 (343 K).

`CC#N` [acetonitrile] + O=S(=O)([N-]S(=O)(=O)C(F)(F)F)C(F)(F)F.O=S(=O)([N-]S(=O)(=O)C(F)(F)F)C(F)(F)F.O=S(=O)([N-]S(=O)(=O)C(F)(F)F)C(F)(F)F.c1ccc2cc(-n3cc[n+](Cc4cc(C[n+]5ccn(-c6ccc7ccccc7c6)c5)cc(C[n+]5ccn(-c6ccc7ccccc7c6)c5)c4)c3)ccc2c1: the activity coefficient (313 K) amounted to 0.263 ± 0.038, the activity coefficient (323 K) worked out at 0.217 ± 0.035, the activity coefficient (333 K) is 0.189 ± 0.033 and the activity coefficient (343 K) is 0.181 ± 0.032.

As for `CCCCCCC` [heptane] + O=S(=O)([N-]S(=O)(=O)C(F)(F)F)C(F)(F)F.O=S(=O)([N-]S(=O)(=O)C(F)(F)F)C(F)(F)F.O=S(=O)([N-]S(=O)(=O)C(F)(F)F)C(F)(F)F.c1ccc2cc(-n3cc[n+](Cc4cc(C[n+]5ccn(-c6ccc7ccccc7c6)c5)cc(C[n+]5ccn(-c6ccc7ccccc7c6)c5)c4)c3)ccc2c1, the activity coefficient is, setting by setting: (313 K) 12.2 ± 1.3; (323 K) 10.1 ± 1.2; (333 K) 6.77 ± 0.82; (343 K) 6.03 ± 0.65.

On to `C1COCCO1` [1,4-dioxane] + O=S(=O)([N-]S(=O)(=O)C(F)(F)F)C(F)(F)F.O=S(=O)([N-]S(=O)(=O)C(F)(F)F)C(F)(F)F.O=S(=O)([N-]S(=O)(=O)C(F)(F)F)C(F)(F)F.c1ccc2cc(-n3cc[n+](Cc4cc(C[n+]5ccn(-c6ccc7ccccc7c6)c5)cc(C[n+]5ccn(-c6ccc7ccccc7c6)c5)c4)c3)ccc2c1, for which the activity coefficient (313 K) was 0.481 ± 0.06, the activity coefficient (323 K) stood at 0.34 ± 0.047, the activity coefficient (333 K) was 0.276 ± 0.038 and the activity coefficient (343 K) was 0.262 ± 0.037.

For the compound `O=C1CCCC1` [cyclopentanone] + O=S(=O)([N-]S(=O)(=O)C(F)(F)F)C(F)(F)F.O=S(=O)([N-]S(=O)(=O)C(F)(F)F)C(F)(F)F.O=S(=O)([N-]S(=O)(=O)C(F)(F)F)C(F)(F)F.c1ccc2cc(-n3cc[n+](Cc4cc(C[n+]5ccn(-c6ccc7ccccc7c6)c5)cc(C[n+]5ccn(-c6ccc7ccccc7c6)c5)c4)c3)ccc2c1, the activity coefficient was 0.303 ± 0.039 (313 K), 0.296 ± 0.04 (323 K), 0.22 ± 0.035 (333 K) and 0.211 ± 0.034 (343 K).

On to `CCO` [ethanol] + O=S(=O)([N-]S(=O)(=O)C(F)(F)F)C(F)(F)F.O=S(=O)([N-]S(=O)(=O)C(F)(F)F)C(F)(F)F.O=S(=O)([N-]S(=O)(=O)C(F)(F)F)C(F)(F)F.c1ccc2cc(-n3cc[n+](Cc4cc(C[n+]5ccn(-c6ccc7ccccc7c6)c5)cc(C[n+]5ccn(-c6ccc7ccccc7c6)c5)c4)c3)ccc2c1, for which the activity coefficient by setting is: (313 K) 0.927 ± 0.1; (323 K) 0.724 ± 0.082; (333 K) 0.611 ± 0.066; (343 K) 0.606 ± 0.064.
